Results as given in US20140243401A1, “METHODS OF SCREENING COMPOUNDS THAT ARE CYTOTOXIC TO TUMOR CELLS AND METHODS OF TREATING TUMOR CELLS USING SUCH COMPOUND” (The Johns Hopkins University, priority 2010, published 2014).
In brackets after ≈: the same amount, converted by molar mass. Several values for one entry are separate records, joined by “and”; a condition that tells them apart may be missing. Equal values may be shown once.

What was measured:
[1] = molecular target: T1, Type I cytosolic FAS (Homo sapiens, UniProt P49327); test: Type I cytosolic FAS activity, [14C]malonyl-CoA incorporation into lipid in MCF7 cell lysates; assay type: biochemical; conditions: MCF7 human breast cancer cell lysates, read-out: IC50, inhibition of Type I cytosolic FAS activity
T1 construct: incorporation into lipid in MCF7 human breast cancer cell lysates; endogenous in cells; host or cells: MCF7 human breast cancer cell lysate
Description: The invention provides for methods that involve determining and/or measuring Type I and mmFAS activity. Methods of measuring Type I FAS activity are known in the art. (See, e.g., U.S. Pat. Nos. 5,759,837 and 5,981,575, which are hereby incorporated by reference in their entirety). For example, Type I FAS activity may be measured in whole cells by monitoring the incorporation of [14C]acetate into total lipids. In cell lysates, Type I FAS activity may be measured by monitoring the incorporation of [14C] from malonyl CoA into total lipids. Alternatively, Type I FAS activity may be determined using purified enzyme with acetyl CoA and malonyl CoA as substrates by measuring incorporation of radioactivity or measuring oxidation of NADPH spectrophotometrically. To test the inhibition of Type I FAS activity, a test compound is added to the reaction mixture.

[2] = tested on: MCF7 cells; test: cellular ATP level, bioluminescence; assay type: cell-based, human
Protocol: As mitochondria serve as the energy production center of the cell, their main purpose is the generation of ATP. As a functional readout, cellular ATP levels may be measured to obtain an indication of mitochondrial status upon compound treatment. MCF-7 cells were cultured the standard medium, and ATP levels were measured by chemiluminescence.
MCF7 human breast cancer cells cultured in DMEM containing 5 mM glucose medium with 10% fetal calf serum, 0.01 mg/ml insulin and 1% penicillin/streptomycin. Cells were plated in 24-well cell culture plates at 2×10^5 per well overnight. After drug treatment, cells were lysed using 500 μl of TE buffer (4 mM Tris, 0.25 mM EDTA, pH 7.4) and boiled at 95° C. for 7 min. ATP levels were measured within the linear range using the ATP BioLuminescence Kit CLSII (Roche) by following the manufacture's recommendation. Luminescence was detected using PerkinElmer Victor 1420.
Determination of the effect on cellular ATP level was carried out using the procedure described above. Cells were plated in 24 well cell culture plates at 2×10^5 per well overnight. Cells were cultured in 1 mM or 5 mM glucose at either 1% or 21% (ambient) oxygen levels. […] ATP levels were measured within the linear range using the ATP Bioluminescence Kit CLSII (Roche) by following the manufacture's recommendation. Luminescence was detected using PerkinElmer Victor 1420.

[3] = alamarBlue assay, primary human hepatocytes; assay type: cell-based; conditions: read-out: LC50 (the source's name)
[4] = tested on: SKOV3 human ovarian cancer cells; test: JC-1 staining, mitochondrial membrane potential in SKOV3 cells; assay type: cell-based; conditions: SKOV3, drug in DMSO applied 30 min prior to staining
Description: JC-1 staining is an indicator of mitochondrial membrane potential; with this assay, mitochondria within cells stained with this fluorescent dye emit a wavelength in the red spectrum when mitochondrial membrane potential is intact. When mitochondria are depolarized, the wavelength of the spectrum emitted changes to green. Therefore, the ratio of red/green fluorescence will give an indication of the intactness of the membrane potential of mitochondria, and thus mitochondrial function.
The left panels show granular red-staining indicating mitochondria with intact membrane potential is brightest in control, and decreases with increasing concentrations of C31. Conversely, the right panels show the diffuse cytoplasmic green-staining which indicates mitochondrial depolarization, is dimmest in control and brightest at the highest concentration of C31 tested. Drug was solubilized in DMSO and applied for 30 min prior to staining.

[5] = tested on: AMP-activated protein kinase (AMPK); test: AMPK activation (pAMPK Western blot) in SKOV3 cells; assay type: cell-based, human; conditions: over time, FIG. 8
Description: Another indicator of cellular energy status and metabolic compromise is the activity on the cellular kinase AMP-activated protein kinase (AMPK). AMPK is a master energy sensor. AMPK regulates both enzyme activities and gene expression. When energy levels are low, and ATP levels fall with the concomitant rise in […] levels, AMPK is activated and phosphorylated. When energy levels are surfeit, AMPK is inactivated and not phosphorylated. Thus, AMPK controls metabolic fluxes between anabolic and catabolic states.
We determined the ability of C31 or Riv7d to cause the activation of AMPK in a variety of cancer cells in vitro. SKOV3 cells were cultured in DMEM containing 5 mM glucose medium with 10% fetal calf serum, 0.01 mg/ml insulin and 1% penicillin/streptomycin. Antibodies to pAMPK and AMPK were obtained from Cell Signaling. Cells were grown in 6-well plates at 5×10^4 per well and incubated overnight. Following drug treatment, the cells were harvested in Laemmli buffer and boiled for 5 minutes. Proteins were separated on a 4-15% SDS-PAGE gradient gel and transferred to a nitrocellulose membrane.

[6] = tested on: Human hepatoma cell line; test: XTT cytotoxicity assay, human hepatoma cell line; assay type: cell-based; conditions: 1 human hepatoma cell line, read-out: LC50 (the source's name)
Protocol: (§1) Cytotoxicity can be easily measured using XTT assays, which provide an indication of mitochondrial activity. The XTT assay is a non-radioactive alternative for the [^51Cr] release cytotoxicity assay. XTT is a tetrazolium salt that is reduced to a formazan dye only by metabolically active, viable cells. The reduction of XTT is measured spectrophotometrically as OD490-OD650. Thus, cells that are actively metabolizing will form reaction product when subjected to XTT measurement.
For this experiment, cells were cultured under standard culture conditions. MCF7 human breast cancer cells were cultured in DMEM containing 5 mM glucose medium with 10% fetal calf serum, 0.01 mg/ml insulin and 1% penicillin/streptomycin. To measure the cytotoxicity of specific compounds against cancer cells, 9×10^3 MCF7 cells were plated per well in 96-well plates. Following overnight culture, the compounds, dissolved in DMSO, were added to the wells in 1 μl volume at specified concentrations. Vehicle controls were run for each experiment. Each condition was run in triplicate. […] Plates were read at OD490 on a PerkinElmer Victor 1420. […]
Using the XTT assay, LC50 values for C31 were determined for numerous human cancer cell lines and human hepatocytes, as shown in the following table: […]

[7] = tested on: human cancer cell lines; test: XTT cytotoxicity assay, all human cancer cell lines tested; assay type: cell-based
Protocol: as §1
For this experiment, cells were cultured under standard culture conditions. MCF7 human breast cancer cells were cultured in DMEM containing 5 mM glucose medium with 10% fetal calf serum, 0.01 mg/ml insulin and 1% penicillin/streptomycin. To measure the cytotoxicity of specific compounds against cancer cells, 9×10^3 MCF7 cells were plated per well in 96-well plates. Following overnight culture, the compounds, dissolved in DMSO, were added to the wells in 1 μl volume at specified concentrations. Vehicle controls were run for each experiment. Each condition was run in triplicate. After 24 to 72 h of incubation, cells were incubated for 4 hours with the XTT reagent as per manufacturer's instructions (Cell Proliferation Kit II (XTT) Roche Diagnostics, New Jersey). Plates were read at OD490 on a PerkinElmer Victor 1420. Three wells containing the XTT reagent without cells served as the plate blank. […]

T1 sequence (P49327 whole entry): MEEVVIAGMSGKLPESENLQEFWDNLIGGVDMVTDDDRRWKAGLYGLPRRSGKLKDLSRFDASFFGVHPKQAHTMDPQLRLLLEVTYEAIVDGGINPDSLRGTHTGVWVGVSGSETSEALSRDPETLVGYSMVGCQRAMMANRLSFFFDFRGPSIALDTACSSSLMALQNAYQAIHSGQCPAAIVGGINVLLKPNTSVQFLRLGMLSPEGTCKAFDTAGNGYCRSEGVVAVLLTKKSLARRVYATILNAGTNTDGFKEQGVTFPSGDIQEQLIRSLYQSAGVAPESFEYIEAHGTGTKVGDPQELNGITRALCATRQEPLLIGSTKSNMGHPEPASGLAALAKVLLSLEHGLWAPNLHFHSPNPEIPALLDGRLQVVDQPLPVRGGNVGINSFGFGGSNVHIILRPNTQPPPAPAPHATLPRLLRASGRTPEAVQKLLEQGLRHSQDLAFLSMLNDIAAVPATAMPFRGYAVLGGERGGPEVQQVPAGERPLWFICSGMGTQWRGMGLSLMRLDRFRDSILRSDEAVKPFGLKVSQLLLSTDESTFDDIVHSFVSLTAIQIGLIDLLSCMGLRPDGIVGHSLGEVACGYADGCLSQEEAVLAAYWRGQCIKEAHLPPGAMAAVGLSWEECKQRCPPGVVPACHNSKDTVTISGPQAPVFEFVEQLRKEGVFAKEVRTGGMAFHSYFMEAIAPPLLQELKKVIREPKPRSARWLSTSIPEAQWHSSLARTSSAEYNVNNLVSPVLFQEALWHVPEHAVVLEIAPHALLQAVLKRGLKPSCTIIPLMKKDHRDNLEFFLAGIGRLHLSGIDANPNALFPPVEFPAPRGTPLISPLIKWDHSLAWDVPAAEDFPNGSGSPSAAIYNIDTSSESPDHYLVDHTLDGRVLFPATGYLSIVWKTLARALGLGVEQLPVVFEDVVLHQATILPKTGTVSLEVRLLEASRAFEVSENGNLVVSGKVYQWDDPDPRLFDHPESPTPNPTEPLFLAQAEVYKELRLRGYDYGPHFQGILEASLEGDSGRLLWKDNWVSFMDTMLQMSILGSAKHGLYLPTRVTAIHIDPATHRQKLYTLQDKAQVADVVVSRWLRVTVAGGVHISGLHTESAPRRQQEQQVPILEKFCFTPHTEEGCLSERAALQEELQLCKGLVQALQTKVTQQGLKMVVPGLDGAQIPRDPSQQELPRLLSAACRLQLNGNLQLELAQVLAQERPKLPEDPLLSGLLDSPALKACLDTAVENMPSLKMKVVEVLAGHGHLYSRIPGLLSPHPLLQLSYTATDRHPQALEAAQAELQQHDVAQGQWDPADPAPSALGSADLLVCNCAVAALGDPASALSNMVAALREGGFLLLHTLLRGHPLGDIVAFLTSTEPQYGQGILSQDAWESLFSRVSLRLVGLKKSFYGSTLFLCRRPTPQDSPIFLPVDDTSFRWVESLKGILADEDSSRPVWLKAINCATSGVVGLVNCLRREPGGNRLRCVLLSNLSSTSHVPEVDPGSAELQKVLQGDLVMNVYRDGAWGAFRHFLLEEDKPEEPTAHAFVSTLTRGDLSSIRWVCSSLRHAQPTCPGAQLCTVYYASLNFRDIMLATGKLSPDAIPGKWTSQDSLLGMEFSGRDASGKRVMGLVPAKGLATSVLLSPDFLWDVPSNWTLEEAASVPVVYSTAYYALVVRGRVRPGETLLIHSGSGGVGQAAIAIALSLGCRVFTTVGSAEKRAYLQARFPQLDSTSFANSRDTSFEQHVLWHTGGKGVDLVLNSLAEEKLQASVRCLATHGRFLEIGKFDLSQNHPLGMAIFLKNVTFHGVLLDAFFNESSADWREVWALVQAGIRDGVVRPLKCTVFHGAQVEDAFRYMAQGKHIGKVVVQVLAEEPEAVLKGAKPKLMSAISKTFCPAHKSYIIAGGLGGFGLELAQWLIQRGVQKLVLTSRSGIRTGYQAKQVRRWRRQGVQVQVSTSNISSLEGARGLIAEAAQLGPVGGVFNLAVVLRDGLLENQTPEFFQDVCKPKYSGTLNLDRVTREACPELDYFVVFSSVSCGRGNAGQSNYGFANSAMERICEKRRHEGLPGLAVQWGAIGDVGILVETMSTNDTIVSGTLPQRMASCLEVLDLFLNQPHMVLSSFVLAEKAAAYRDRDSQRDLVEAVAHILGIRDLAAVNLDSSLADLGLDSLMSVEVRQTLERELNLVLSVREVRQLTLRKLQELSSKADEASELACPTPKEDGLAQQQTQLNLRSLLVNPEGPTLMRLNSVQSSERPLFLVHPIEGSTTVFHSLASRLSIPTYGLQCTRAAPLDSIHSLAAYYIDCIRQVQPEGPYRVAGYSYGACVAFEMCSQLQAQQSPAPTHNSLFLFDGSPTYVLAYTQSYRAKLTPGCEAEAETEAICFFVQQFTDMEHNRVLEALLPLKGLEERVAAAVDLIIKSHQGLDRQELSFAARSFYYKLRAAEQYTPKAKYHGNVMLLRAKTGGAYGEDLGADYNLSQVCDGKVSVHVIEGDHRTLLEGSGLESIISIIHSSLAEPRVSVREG

With `CCCCCCCCC1(C)SC(=O)C=C1OCC(=O)Nc1ccc(Cl)cc1` (stereo not drawn) [Compound C31] the IC50 [1] was 17.8 µM, the ATP levels ([2]; MCF7, 1 mM or 5 mM glucose, 1% or 21% oxygen, FIG. 10) was “ATP levels declined in all of the cells” and the ATP levels ([2]; MCF7, standard medium 5 mM glucose, FIG. 5) was “rapidly decreased”. The CC50 [3] was 225 µg/mL and 562 µM, the “mitochondrial depolarization (JC-1 staining)” value [4] was “depolarization of the mitochondria in the SKOV3 human ovarian cancer cells which is dose-dependent” and the “AMPK activation (pAMPK levels, Western blot)” value [5] was “rapid activation of AMPK”. For the same compound, the CC50 [6] was 5 µg/mL (≈ 12.2 µM), the CC50 ([7]; Homo sapiens, XTT, range over all cancer cell lines, read-out: LC50, human cancer cell lines) was 3.3 µg/mL to 16.7 µg/mL and 8.25 µM to 41.8 µM and the “potential therapeutic index in vitro” value ([7]; hepatocyte LC50 vs cancer cell line LC50) was 34 to 170 fold.
